Data from US9969752B2, “Inhibitors of HIF prolyl hydroxylase” (MERCK SHARP & DOHME CORP., priority 2014, dated 2018).

What follows are compounds tested against T1, Human HIF-PHD2 (Homo sapiens, UniProt Q9GZT9) (assay: Inhibition of the hydroxylation of a HIF peptide by PHD2 (time resolved fluorescence, 384-well)). Settings: FLAG-tagged full length PHD2; 0.2 μM 2-oxoglutarate, 0.5 μM HIF-1α peptide; 45 minutes at room temperature; read-out: Human HIF-PHD2 IC50.
T1 construct: FLAG-tagged full length PHD2 expressed in and purified from baculovirus-infected Sf9 cells; FLAG; made in house; host or cells: baculovirus-infected Sf9 cells
T1 sequence (Q9GZT9 whole entry): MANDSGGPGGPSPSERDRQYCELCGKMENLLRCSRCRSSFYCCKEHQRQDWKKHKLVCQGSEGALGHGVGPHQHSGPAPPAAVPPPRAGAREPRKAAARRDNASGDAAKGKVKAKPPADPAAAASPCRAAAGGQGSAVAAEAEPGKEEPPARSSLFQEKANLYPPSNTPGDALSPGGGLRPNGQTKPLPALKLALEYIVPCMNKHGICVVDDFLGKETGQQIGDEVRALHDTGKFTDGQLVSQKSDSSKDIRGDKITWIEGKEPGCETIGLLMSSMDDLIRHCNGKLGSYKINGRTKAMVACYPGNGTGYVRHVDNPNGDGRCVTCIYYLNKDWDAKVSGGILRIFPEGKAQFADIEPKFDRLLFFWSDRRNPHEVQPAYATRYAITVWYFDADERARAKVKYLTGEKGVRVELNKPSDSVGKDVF
Format: biochemical

First: N#Cc1cc2c3c(c1)c(O)c(C(=O)NCC(=O)O)c(=O)n3CC(c1ccc(C(F)(F)F)cc1)[S+]2[O-] (stereo not drawn) [Example 91, 2-(9-Cyano-7-hydroxy-1-oxido-5-oxo-2-(4-(trifluoromethyl)phenyl)-3,5-dihydro-2H-[1,4]thiazino[2,3,4-ij]quinoline-6-carboxamido)acetic acid]
Second: CN1c2cc(C#N)cc3c(O)c(C(=O)NCC(=O)O)c(=O)n(c23)CC1c1ccc(C(F)(F)F)cc1 (stereo not drawn) [Example 96, 2-(9-Cyano-7-hydroxy-1-methyl-5-oxo-2-(4-(trifluoromethyl)phenyl)-1,2,3,5-tetrahydropyrido[1,2,3-de]quinoxaline-6-carboxamido)acetic acid]
The IC50 of the first is 3.6-fold lower: 0.839 nM for the first, 3 nM for the second. The first is the more potent here.

Going from `N#Cc1cc2c3c(c1)c(O)c(C(=O)NCC(=O)O)c(=O)n3C(c1ccc(C(F)(F)F)cc1)CN2` (stereo not drawn) [Example 92, 2-(9-Cyano-7-hydroxy-5-oxo-3-(4-(trifluoromethyl)phenyl)-1,2,3,5-tetrahydropyrido[1,2,3-de]quinoxaline-6-carboxamido)acetic acid] to `O=C(O)CNC(=O)c1c(O)c2cc(F)cc3c2n(c1=O)C(c1ccc(C(F)(F)F)cc1)CN3` (stereo not drawn) [Example 118, 2-(9-Fluoro-7-hydroxy-5-oxo-3-(4-(trifluoromethyl)phenyl)-1,2,3,5-tetrahydropyrido[1,2,3-de]quinoxaline-6-carboxamido)acetic acid], the IC50 rises from 3.1 nM to 5.7 nM (1.8-fold).

First: N#Cc1ccc2c3c1c(O)c(C(=O)NCC(=O)O)c(=O)n3CC(c1ccc(C(F)(F)F)cc1)N2 (stereo not drawn) [Example 94, 2-(8-Cyano-7-hydroxy-5-oxo-2-(4-(trifluoromethyl)phenyl)-1,2,3,5-tetrahydropyrido[1,2,3-de]quinoxaline-6-carboxamido)acetic acid]
Second: O=C(O)CNC(=O)c1c(O)c2c(F)ccc3c2n(c1=O)CC(c1ccc(C(F)(F)F)cc1)N3 (stereo not drawn) [Example 119, 2-(8-Fluoro-7-hydroxy-5-oxo-2-(4-(trifluoromethyl)phenyl)-1,2,3,5-tetrahydropyrido[1,2,3-de]quinoxaline-6-carboxamido)acetic acid]
The IC50 of the first is 12-fold lower: 0.8 nM for the first, 10 nM for the second.

`CN1CC(c2ccc(C(F)(F)F)cc2)n2c(=O)c(C(=O)NCC(=O)O)c(O)c3cc(C#N)cc1c32` (stereo not drawn) [Example 95, 2-(9-Cyano-7-hydroxy-1-methyl-5-oxo-3-(4-(trifluoromethyl)phenyl)-1,2,3,5-tetrahydropyrido[1,2,3-de]quinoxaline-6-carboxamido)acetic acid] and `N#Cc1cc2c3c(c1)c(O)c(C(=O)NCC(=O)O)c(=O)n3C(c1ccc(C(F)(F)F)cc1)CS2` (stereo not drawn) [Example 102, 2-(9-Cyano-7-hydroxy-5-oxo-3-(4-(trifluoromethyl)phenyl)-3,5-dihydro-2H-[1,4]thiazino[2,3,4-ij]quinoline-6-carboxamido)acetic acid] are within 1.5-fold of each other in IC50: 5.5 nM for the first, 5.8 nM for the second.

Going from `N#Cc1ccc2c3c1c(O)c(C(=O)NCC(=O)O)c(=O)n3CC(c1ccc(C(F)(F)F)cc1)S2` (stereo not drawn) [Example 97, 2-(8-Cyano-7-hydroxy-5-oxo-2-(4-(trifluoromethyl)phenyl)-3,5-dihydro-2H-[1,4]thiazino[2,3,4-ij]quinoline-6-carboxamido)acetic acid] to `N#Cc1ccc2c3c1c(O)c(C(=O)NCC(=O)O)c(=O)n3C(c1ccc(C(F)(F)F)cc1)CS2` (stereo not drawn) [Example 99, 2-(8-Cyano-7-hydroxy-5-oxo-3-(4-(trifluoromethyl)phenyl)-3,5-dihydro-2H-[1,4]thiazino[2,3,4-ij]quinoline-6-carboxamido)acetic acid], the IC50 rises from 1.5 nM to 5.1 nM (3.4-fold).

`O=C(O)CNC(=O)c1c(O)c2c(F)ccc3c2n(c1=O)C(c1ccc(C(F)(F)F)cc1)CS3` (stereo not drawn) [Example 98, 2-(8-Fluoro-7-hydroxy-5-oxo-3-(4-(trifluoromethyl)phenyl)-3,5-dihydro-2H-[1,4]thiazino[2,3,4-ij]quinoline-6-carboxamido)acetic acid] and `O=C(O)CNC(=O)c1c(O)c2c(F)ccc3c2n(c1=O)C(c1ccc(C(F)(F)F)cc1)CN3` (stereo not drawn) [Example 121, 2-(8-Fluoro-7-hydroxy-5-oxo-3-(4-(trifluoromethyl)phenyl)-1,2,3,5-tetrahydropyrido[1,2,3-de]quinoxaline-6-carboxamido)acetic acid] are within 1.5-fold of each other in IC50: 13.7 nM for the first, 9.4 nM for the second.

`O=C(O)CNC(=O)c1c(O)c2cccc3c2n(c1=O)C(c1ccc(C(F)(F)F)cc1)CS3` (stereo not drawn) [Example 100, 2-(7-Hydroxy-5-oxo-3-(4-(trifluoromethyl)phenyl)-3,5-dihydro-2H-[1,4]thiazino[2,3,4-ij]quinoline-6-carboxamido)acetic acid] and `O=C(O)CNC(=O)c1c(O)c2cccc3c2n(c1=O)C(c1ccc(C(F)(F)F)cc1)CN3` (stereo not drawn) [Example 106, 2-(7-Hydroxy-5-oxo-3-(4-(trifluoromethyl)phenyl)-1,2,3,5-tetrahydropyrido[1,2,3-de]quinoxaline-6-carboxamido)acetic acid] are within 1.5-fold of each other in IC50: 32 nM for the first, 27 nM for the second.

Going from `O=C(O)CNC(=O)c1c(O)c2cccc3c2n(c1=O)C(c1ccc(C(F)(F)F)cc1)CS3(=O)=O` (stereo not drawn) [Example 101, 2-(7-hydroxy-1,1-dioxido-5-oxo-3-(4-(trifluoromethyl)phenyl)-3,5-dihydro-2H-[1,4]thiazino[2,3,4-ij]quinoline-6-carboxamido)acetic acid] to `CN1CC(c2ccc(C(F)(F)F)cc2)n2c(=O)c(C(=O)NCC(=O)O)c(O)c3cccc1c32` (stereo not drawn) [Example 107, 2-(7-Hydroxy-1-methyl-5-oxo-3-(4-(trifluoromethyl)phenyl)-1,2,3,5-tetrahydropyrido[1,2,3-de]quinoxaline-6-carboxamido)acetic acid], the IC50 rises from 8.6 nM to 68 nM (7.9-fold).

First: O=C(O)CNC(=O)c1c(O)c2cccc3c2n(c1=O)CC(c1ccc(C(F)(F)F)nc1)S3 (stereo not drawn) [Example 103, 2-(7-Hydroxy-5-oxo-2-(6-(trifluoromethyl)pyridin-3-yl)-3,5-dihydro-2H-[1,4]thiazino[2,3,4-ij]quinoline-6-carboxamido)acetic acid]
Second: O=C(O)CNC(=O)c1c(O)c2cccc3c2n(c1=O)CC(c1ccc(C(F)(F)F)nc1)S3(=O)=O (stereo not drawn) [Example 104, 2-(7-Hydroxy-1,1-dioxido-5-oxo-2-(6-(trifluoromethyl)pyridin-3-yl)-3,5-dihydro-2H-[1,4]thiazino[2,3,4-ij]quinoline-6-carboxamido)acetic acid]
The IC50 of the first is 1.9-fold lower: 3.4 nM for the first, 6.3 nM for the second.

First: O=C(O)CNC(=O)c1c(O)c2cccc3c2n(c1=O)C(c1cncs1)CS3 (stereo not drawn) [Example 105, 2-(7-Hydroxy-5-oxo-3-(thiazol-5-yl)-3,5-dihydro-2H-[1,4]thiazino[2,3,4-ij]quinoline-6-carboxamido)acetic acid]
Second: O=C(O)CNC(=O)c1c(O)c2cccc3c2n(c1=O)C(c1cncs1)CN3 (stereo not drawn) [Example 111, 2-(7-Hydroxy-5-oxo-3-(thiazol-5-yl)-1,2,3,5-tetrahydropyrido[1,2,3-de]quinoxaline-6-carboxamido)acetic acid]
The IC50 of the first is 2.9-fold lower: 5.1 nM for the first, 15 nM for the second.

`O=C(O)CNC(=O)c1c(O)c2cccc3c2n(c1=O)CC(c1ccc(C(F)(F)F)cc1)N3` (stereo not drawn) [Example 108, 2-(7-Hydroxy-5-oxo-2-(4-(trifluoromethyl)phenyl)-1,2,3,5-tetrahydropyrido[1,2,3-de]quinoxaline-6-carboxamido)acetic acid] and `O=C(O)CNC(=O)c1c(O)c2ccc(F)c3c2n(c1=O)CC(c1ccc(C(F)(F)F)cc1)N3` (stereo not drawn) [Example 116, 2-(10-Fluoro-7-hydroxy-5-oxo-2-(4-(trifluoromethyl)phenyl)-1,2,3,5-tetrahydropyrido[1,2,3-de]quinoxaline-6-carboxamido)acetic acid] are within 1.5-fold of each other in IC50: 6.5 nM for the first, 8.8 nM for the second.

First: N#Cc1ccc2c(O)c(C(=O)NCC(=O)O)c(=O)n3c2c1NC(c1cncs1)C3 (stereo not drawn) [Example 109, 2-(10-Cyano-7-hydroxy-5-oxo-2-(thiazol-5-yl)-1,2,3,5-tetrahydropyrido[1,2,3-de]quinoxaline-6-carboxamido)acetic acid]
Second: O=C(O)CNC(=O)c1c(O)c2cccc3c2n(c1=O)CC(c1cncs1)N3 (stereo not drawn) [Example 110, 2-(7-Hydroxy-5-oxo-2-(thiazol-5-yl)-1,2,3,5-tetrahydropyrido[1,2,3-de]quinoxaline-6-carboxamido)acetic acid]
The IC50 of the first is 2.9-fold lower: 4.2 nM for the first, 12 nM for the second. The first is the more potent here.

Compared with `CN1c2cccc3c(O)c(C(=O)NCC(=O)O)c(=O)n(c23)CC1c1cncs1` (stereo not drawn) [Example 112, 2-(7-Hydroxy-1-methyl-5-oxo-2-(thiazol-5-yl)-1,2,3,5-tetrahydropyrido[1,2,3-de]quinoxaline-6-carboxamido)acetic acid], `CN1CC(c2cncs2)n2c(=O)c(C(=O)NCC(=O)O)c(O)c3cccc1c32` (stereo not drawn) [Example 113, 2-(7-Hydroxy-1-methyl-5-oxo-3-(thiazol-5-yl)-1,2,3,5-tetrahydropyrido[1,2,3-de]quinoxaline-6-carboxamido)acetic acid] is 4.3-fold higher in IC50: 29 nM for the first, 125 nM for the second.

First: N#Cc1ccc2c(O)c(C(=O)NCC(=O)O)c(=O)n3c2c1NC(c1ccc(C(F)(F)F)cc1)C3 (stereo not drawn) [Example 114, 2-(10-Cyano-7-hydroxy-5-oxo-2-(4-(trifluoromethyl)phenyl)-1,2,3,5-tetrahydropyrido[1,2,3-de]quinoxaline-6-carboxamido)acetic acid]
Second: O=C(O)CNC(=O)c1c(O)c2cc(F)cc3c2n(c1=O)CC(c1ccc(C(F)(F)F)cc1)N3 (stereo not drawn) [Example 120, 2-(9-Fluoro-7-hydroxy-5-oxo-2-(4-(trifluoromethyl)phenyl)-1,2,3,5-tetrahydropyrido[1,2,3-de]quinoxaline-6-carboxamido)acetic acid]
The IC50 of the first is 4.6-fold lower: 1 nM for the first, 4.6 nM for the second.

Compared with `O=C(O)CNC(=O)c1c(O)c2ccc(F)c3c2n(c1=O)C(c1ccc(C(F)(F)F)cc1)CN3` (stereo not drawn) [Example 115, 2-(10-Fluoro-7-hydroxy-5-oxo-3-(4-(trifluoromethyl)phenyl)-1,2,3,5-tetrahydropyrido[1,2,3-de]quinoxaline-6-carboxamido)acetic acid], `CN1CC(c2ccc(C(F)(F)F)cc2)n2c(=O)c(C(=O)NCC(=O)O)c(O)c3ccc(F)c1c32` (stereo not drawn) [Example 117, 2-(10-Fluoro-7-hydroxy-1-methyl-5-oxo-3-(4-(trifluoromethyl)phenyl)-1,2,3,5-tetrahydropyrido[1,2,3-de]quinoxaline-6-carboxamido)acetic acid] is 4.2-fold higher in IC50: 13 nM for the first, 55 nM for the second.
